Data set [1] has as its target T1, human androgen receptor (hAR) (Homo sapiens, UniProt P10275).
T1 construct: expressed in transfected cells
T1 sequence (P10275 1-920): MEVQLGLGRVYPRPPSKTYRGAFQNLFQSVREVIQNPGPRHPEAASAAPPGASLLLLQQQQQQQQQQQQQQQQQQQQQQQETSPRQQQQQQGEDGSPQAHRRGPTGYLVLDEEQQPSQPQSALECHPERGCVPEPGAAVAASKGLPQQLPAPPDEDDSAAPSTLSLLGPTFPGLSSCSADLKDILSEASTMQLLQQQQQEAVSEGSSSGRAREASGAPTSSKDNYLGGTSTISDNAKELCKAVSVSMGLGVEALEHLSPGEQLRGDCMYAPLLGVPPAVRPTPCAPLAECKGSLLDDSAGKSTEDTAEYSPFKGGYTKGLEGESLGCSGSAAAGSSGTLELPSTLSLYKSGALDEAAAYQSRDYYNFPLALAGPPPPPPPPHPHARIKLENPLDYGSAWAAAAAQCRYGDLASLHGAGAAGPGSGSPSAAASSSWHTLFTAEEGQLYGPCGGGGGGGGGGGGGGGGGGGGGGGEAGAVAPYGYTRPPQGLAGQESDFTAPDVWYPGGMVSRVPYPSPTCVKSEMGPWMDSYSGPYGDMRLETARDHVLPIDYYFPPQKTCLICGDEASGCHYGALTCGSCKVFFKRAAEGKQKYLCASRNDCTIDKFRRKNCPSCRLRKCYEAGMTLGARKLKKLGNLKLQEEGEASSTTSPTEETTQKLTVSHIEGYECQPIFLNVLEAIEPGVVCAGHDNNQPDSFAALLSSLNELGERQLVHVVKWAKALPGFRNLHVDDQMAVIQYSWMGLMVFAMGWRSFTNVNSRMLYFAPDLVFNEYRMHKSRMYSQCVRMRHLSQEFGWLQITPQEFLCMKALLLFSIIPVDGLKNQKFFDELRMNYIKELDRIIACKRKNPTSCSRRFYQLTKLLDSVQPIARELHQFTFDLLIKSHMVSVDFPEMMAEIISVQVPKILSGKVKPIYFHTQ
Nature of the data set: Functional response (transactivation) test in HALP2 cells (HeLa stably expressing hAR and ARE-luciferase reporter). Type of data set: cell-based. The settings on record: for Emax: HeLa, read-out: % effect relative to DHT (100%). From the text: This test constitutes a method of identifying pure or partial agonists which mimic the effects of natural hormones, such as DHT (dihydrotestosterone) in the present case or, on the other hand, antagonists which inhibit them.
For this transactivation test, plasmids encoding a reporter gene and the human androgen receptor (hAR) are introduced together by transfection into the HeLa cell line. The reporter plasmid contains luciferase cDNA under the control of the AREs contained in the promoter sequences of the probasin gene (3xpbAREminicoll-luciferase/pGL3-puro). The expression of the reporter gene constitutes an indication of the transcriptional activity of hAR. It also encodes a protein allowing the cells expressing it to resist a treatment with puromycin. The plasmid encoding hAR contains the cDNA of hAR under the control of the Cytomegalovirus (CMV) promoter. It also encodes a protein allowing the cells expressing it to resist a treatment with neomycin. The treatment of cells with increasing amounts of potentially agonistic compounds will increase the expression of the reporter gene. To detect antagonists, on the other hand, increasing doses of test compounds are tested in the presence of […] of DHT. The expression of the reporter gene, which is constant for each dose of DHT, decreases when the concentration of the test compounds increases.
The functional response test is conducted on 96-well plates. The HALP2 cells are seeded (20,000 cells per well) in culture medium (DMEM with phenol red, 1% de Pen-Strep, 1% of non-essential amino acids, 10% of fetal bovine serum, 400 μg/mL Geneticin and 0.150 puromycin) on day 1. After 24 hours incubating at 37° C., 5% CO2, high humidity (day 2) the medium is removed and refreshed with test medium (DMEM without phenol red supplemented, 1% de Pen-Strep, 1% of non-essential amino acids and 5% of desteroidised foetal bovine serum). After another 24 hours incubating at 37° C., 5% CO2, high humidity (day 3), the medium is renewed once more before the phase of stimulation.
The cells are placed in contact with the compounds for 24 hours at 37° C., 5% CO2, high humidity. On day 4 the medium is then removed and the luciferase activity reading reagent is placed in contact with the cells in accordance with the manufacturer's instructions (SteadyLite, Perkin-Elmer). The luminescence produced is detected on an Envision reader (Perkin-Elmer). […]
The determination of the relative agonism/antagonism of a compound is obtained by comparing the maximal activation obtained with said compound and the activation obtained with DHT alone (100%).

Data set [2] can be described thus: Determination of absolute bioavailability (restricted PK profile, oral and intravenous). The settings on record: male, Sprague-Dawley, rat, plasma, po, 10 mg/kg, absolute bioavailability (F), male Sprague Dawley rats, oral 10 mg/kg AUC(0-6 h) vs intravenous 3 mg/kg AUC(0-3 h); read-out: Bioavailability. The class given is in vivo. The protocol: To screen rapidly imidazolidines derivatives based on their absolute bioavailabity, restricted pharmacokinetic profile with only fours sampling time points after oral and intravenous route is investigated in Sprague Dawley rats as follows: each test compound is dosed orally (10 mg/kg) and intravenously (3 mg/kg) to groups of 3 male Sprague Dawley rats. Oral doses are administered as solution in EtOH/PEG400/H2O (1/79/20; v/v) by esophageal gavage (2 mg/mL; 5 mL/kg) and intravenous dose is given as solution in DMSO/PEG400/H2O (1/65/34; v/v) as a bolus in the tail vein (3 mg/mL; 1 mL/kg). Before oral dosing, animals are deprived of food (water ad libitum) for at least 16 hours before the start of the study and 6 hours after administration.
Blood is collected at the retro-orbital sinus into polypropylene tubes (Li-heparinate) at +4° C. at the following sampling-times: 0.083, 0.25, 1 and 3 h after intravenous injection and 0.25, 1, 3 and 6 hours after oral dosing. Three (3) animals are sampled per time-point; each animal being sampled four times. After centrifugation at 5000 rpm for 10 min at +4° C., plasma is collected into polypropylene tubes and kept frozen at −20° C. pending assays. Plasma samples are assayed by a LC-MS/MS method with a lower limit of quantification of 1 to 10 ng/mL depending on the compound (volume of plasma: 100 μL).
A LC-MS/MS method for quantification in heparinized plasma was developed for each test compound. Sample preparation consists of a precipitation of plasma proteins with methanol and filtration by centrifugation of supernatant on Captiva deep-well 96 0.2 μm filter plates. Water was added to methanol supernatant phase prior to analysis by liquid chromatography (Pursuit 5 C18 20×2.0 mm VARIAN, 2 μL loop, gradient Water/Methanol (90/10 to 0/100) over 1.7 min) with turboionspray tandem mass spectrometry (API4000) in negative mode using multiple reaction monitoring. The method includes 8 standard and 3 quality control levels with lower limit of quantification corresponding to first standard level.
Exposures are determined using a non compartmental model (WinNonLin 2.1) and the absolute bioavailability (F) is calculated as follows: [AUC(0-6 h) oral*3 mg/kg]/AUC(0-3 h) IV 10 mg/kg] and expressed in percentage.

In data set [3] the test system is castrated immature young rats. Nature of the data set: Adapted model of Hershberger's test. The class given is in vivo, Sprague Dawley rats. Conditions: Rattus norvegicus, po, 96 h, ORX control = 0%, SHAM control = 100%, per os daily for 4 days, dose tested 30 mg/kg.
[4] abbreviates: maximal activation by the compound compared with DHT alone (100%), HALP2 cells.
The mark [5] stands for this setting: agonism: concentration inducing 50% of the maximum agonistic effect of the tested compound, HALP2 cells, 24 hours, read-out: EC50.
Where [6] appears, read: levator ani weight, read-out: Anabolic activity %.
[7] abbreviates: ventral prostate weight, read-out: Androgenic activity % (Prostate).

A word on the EC50: it is the concentration at which the effect is half-maximal. Usually bioavailability stands for the share of a dose that reaches the circulation, judged against a reference dose that is usually intravenous.

Read-outs that look alike come from different tables or passages of the source.

For `CN1C(=O)N(c2ccc(C#N)c(C(F)(F)F)c2)C(=O)C1(CO)c1ccccc1` (centres unmarked) [Example 1, 4-[2,5-Dioxo-4-(hydroxymethyl)-3-methyl-4-phenylimidazolidin-1-yl]-2-trifluoromethylbenzonitrile], the Emax in data set [1] (setting [4]) fell in the range of 21 to 40%. The EC50 in data set [1] (setting [5]) was in the range of 0.01 to 10 nM. In addition, the bioavailability in data set [2] was 50 to 90%.
In the case of `CN1C(=O)N(c2ccc(C#N)c(C(F)(F)F)c2)C(=O)C1(CO)c1ccc(F)cc1` (centres unmarked) [Example 6, 4-[2,5-Dioxo-4-(4-fluorophenyl)-4-(hydroxymethyl)-3-methylimidazolidin-1-yl]-2-trifluoromethylbenzonitrile], the Emax in data set [1] (setting [4]) was 21 to 40%. The half-maximal effective concentration (EC50) in data set [1] (setting [5]) lay in the range of 11 to 100 nM. The response vs control in vivo at 30 mg/kg in data set [3] (setting [6]) lay in the range of 25 to 50%; in data set [3] (setting [7]), 0.5 to 25%. Also, the bioavailability in data set [2] fell in the range of 50 to 90%.
As to `C#CCN1C(=O)N(c2ccc(C#N)c(C(F)(F)F)c2)C(=O)C1(CO)c1ccc(F)cc1` (centres unmarked) [Example 8, 4-[2,5-Dioxo-4-(4-fluorophenyl)-4-hydroxymethyl-3-(2-propynyl)imidazolidin-1-yl]-2-trifluoromethylbenzonitrile], in data set [1], the EC50 was 101 to 500 nM and the Emax lay within 6 to 20%. The bioavailability in data set [2] is greater than 90%.
Consider `CN1C(=O)N(c2ccc(C#N)c(C(F)(F)F)c2)C(=O)[C@]1(CO)c1ccccc1` [Example 11, (R)-4-[2,5-Dioxo-4-(hydroxymethyl)-3-methyl-4-phenylimidazolidin-1-yl]-2-trifluoromethylbenzonitrile], for which the Emax in data set [1] (setting [4]) fell in the range of 0 to 5%. For the same compound, the figures for the response vs control in vivo at 30 mg/kg in data set [3] (setting [6]) and in data set [3] (setting [7]) were 50 to 75% and 0.5 to 25%, respectively.
